pEC50: −log10 of the molar value. Where “and” joins values, the source holds several entries; their conditions need not be identical. Equal values may be shown once. Read-outs that look alike come from different tables or passages of the source.
What was measured:
[1] = system: SARS-CoV-2 gamma strain hCoV-19/Japan/TY7-501/2021; format: in vivo, BALB/c mice
in vivo = test: in vivo; set-up: species or system mice; details: mouse plasma, simulated; for Cmax / AUC(0-t): BALB/c, mouse, in vivo, po; for AUC(0-t): read-out: AUC0–48h
[2] = Adverse effects in rodents at exposure of the maximum dose; format: in vivo; details: same exposure conditions as the maximum dose administered to mice
[3] = system: SARS-CoV-2 gamma strain (hCoV-19/Japan/TY7-501/2021); details: cited from earlier work; for Viral titer in lungs: twice daily for 2 d, Day 2, individual mice 1-5, previously reported ref 12
[4] = system: SARS-CoV-2 gamma strain (hCoV-19/Japan/TY7-501/2021); set-up: method as in earlier work; details: extrapolated to 100% mouse serum, cited from earlier work
[5] = 8 mg/kg, thrice daily for 2 d, 8 mg/kg oral
[6] = 8 mg/kg, twice daily for 2 d, 8 mg/kg oral
[7] = 16 mg/kg, once daily for 2 d, 16 mg/kg oral
[8] = 16 mg/kg, thrice daily for 2 d, 16 mg/kg oral
[9] = 16 mg/kg, twice daily for 2 d, 16 mg/kg oral
[10] = 32 mg/kg, once daily for 2 d, 32 mg/kg oral
[11] = 32 mg/kg, one shot, 32 mg/kg oral
[12] = 32 mg/kg, thrice daily for 2 d, 32 mg/kg oral
[13] = 32 mg/kg, twice daily for 2 d, 32 mg/kg oral
[14] = 64 mg/kg, once daily for 2 d, 64 mg/kg oral
[15] = 64 mg/kg, one shot, 64 mg/kg oral
[16] = 64 mg/kg, thrice daily for 2 d, 64 mg/kg oral
[17] = 64 mg/kg, twice daily for 2 d, 64 mg/kg oral

Q: What does the source list for `Cn1cnc(Cn2c(=O)[nH]/c(=N\c3cc4cn(C)nc4cc3Cl)n(Cc3cc(F)c(F)cc3F)c2=O)n1` [ensitrelvir, ensitrelvir fumaric acid]?
A: Antiviral activity when administration delayed 72 h post-infection ([1]; given during the viral clearance phase): dose-dependent antiviral activity; Dose that significantly lowered lung viral titers compared to vehicle ([1]; mouse, in vivo): ≥ 8 mg/kg; Cmax (in vivo; [5]): 21500 ng/mL; AUC(0-t) (in vivo; [5]): 657 µg·h/mL; Cmax (in vivo; [6]): 18100 ng/mL; AUC(0-t) (in vivo; [6]): 446 µg·h/mL; Cmax (in vivo; [7]): 38800 ng/mL; AUC(0-t) (in vivo; [7]): 475 µg·h/mL; Cmax (in vivo; [8]): 47600 ng/mL; AUC(0-t) (in vivo; [8]): 1390 µg·h/mL; Cmax (in vivo; [9]): 41300 ng/mL; AUC(0-t) (in vivo; [9]): 941 µg·h/mL; Cmax (in vivo; [10]): 72500 ng/mL; AUC(0-t) (in vivo; [10]): 1020 µg·h/mL; Cmax (in vivo; [11]): 72400 ng/mL; AUC(0-t) (in vivo; [11]): 510 µg·h/mL; Cmax (in vivo; [12]): 96000 ng/mL; AUC(0-t) (in vivo; [12]): 2960 µg·h/mL; Cmax (in vivo; [13]): 79700 ng/mL; AUC(0-t) (in vivo; [13]): 2010 µg·h/mL; Cmax (in vivo; [14]): 160000 ng/mL; AUC(0-t) (in vivo; [14]): 2670 µg·h/mL; Cmax (in vivo; [15]): 159000 ng/mL; AUC(0-t) (in vivo; [15]): 1340 µg·h/mL; Cmax (in vivo; [16]): 232000 ng/mL; AUC(0-t) (in vivo; [16]): 7650 µg·h/mL; Cmax (in vivo; [17]): 188000 ng/mL; AUC(0-t) (in vivo; [17]): 5230 µg·h/mL; C48h (in vivo; once daily for 2 d, 16 mg/kg oral): 75.8 ng/mL; C48h (in vivo; once daily for 2 d, 32 mg/kg oral): 210 ng/mL; C48h (in vivo; once daily for 2 d, 64 mg/kg oral): 1290 ng/mL; C48h (in vivo; one shot, 32 mg/kg oral): 0.0591 ng/mL; C48h (in vivo; one shot, 64 mg/kg oral): 1.11 ng/mL; C48h (in vivo; thrice daily for 2 d, 8 mg/kg oral): 5740 ng/mL; C48h (in vivo; thrice daily for 2 d, 16 mg/kg oral): 11,600 ng/mL; C48h (in vivo; thrice daily for 2 d, 32 mg/kg oral): 30,000 ng/mL; C48h (in vivo; thrice daily for 2 d, 64 mg/kg oral): 88,300 ng/mL; C48h (in vivo; twice daily for 2 d, 8 mg/kg oral): 1840 ng/mL; C48h (in vivo; twice daily for 2 d, 16 mg/kg oral): 3760 ng/mL; C48h (in vivo; twice daily for 2 d, 32 mg/kg oral): 11,400 ng/mL; C48h (in vivo; twice daily for 2 d, 64 mg/kg oral): 42,000 ng/mL; Adverse effects [2]: No adverse effects were observed; Viral titer in lungs ([3]; 8 mg/kg oral from 24 h post-infection, 8 mg/kg): 5.80 log10 TCID50/mL (2×) and 5.97 log10 TCID50/mL (2×) and 5.63 log10 TCID50/mL; Viral titer in lungs ([3]; 16 mg/kg oral from 24 h post-infection, 16 mg/kg): 5.80 log10 TCID50/mL and 5.63 log10 TCID50/mL and 5.53 log10 TCID50/mL (2×) and 4.97 log10 TCID50/mL; Viral titer in lungs ([3]; 32 mg/kg oral from 24 h post-infection, 32 mg/kg): 4.30 log10 TCID50/mL and 3.80 log10 TCID50/mL and 4.63 log10 TCID50/mL (3×); Viral titer in lungs ([3]; 64 mg/kg oral from 24 h post-infection, 64 mg/kg): 2.80 log10 TCID50/mL and 3.80 log10 TCID50/mL (2×) and 3.63 log10 TCID50/mL and 3.30 log10 TCID50/mL; Mouse PA-EC50 [4]: 2.09 µg/mL; pEC50 ([4]; read-out: Mouse PA-EC50): 5.41

Q: Which “Antiviral activity in this model” value ([3]; delayed-treatment mouse model) does the source give for `CC(C)(C)[C@H](NC(=O)C(F)(F)F)C(=O)N1C[C@H]2[C@@H]([C@H]1C(=O)N[C@H](C#N)C[C@@H]1CCNC1=O)C2(C)C` [nirmatrelvir, reference compound] here?
A: The value was “demonstrates antiviral activity”.

Source: article PMC10612060 (Viruses, 2023)
